biological target: Cell division control protein 42 homolog (Homo sapiens) (UniProt P60953); assay: Cdc42 activated mutant GTP-binding inhibitors, SAR follow-up, biochemical, probe extension, bead-based multiplex flow cytometry, round 1 (AID 588373); details: Bodipy-FL-GTP binding, EDTA
Sequence (P60953 whole entry, looked up): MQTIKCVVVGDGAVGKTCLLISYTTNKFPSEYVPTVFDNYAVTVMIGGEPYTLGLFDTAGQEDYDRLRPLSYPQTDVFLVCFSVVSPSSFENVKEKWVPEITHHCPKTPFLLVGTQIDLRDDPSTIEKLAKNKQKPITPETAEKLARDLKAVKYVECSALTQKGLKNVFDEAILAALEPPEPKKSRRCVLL

EC50, active:
O=C(C#Cc1ccccc1)c1cccc([N+](=O)[O-])c1 368 nM, COc1ccc(C2CC(c3ccccc3)=NN2c2ccc(S(N)(=O)=O)cc2)cc1 (stereo not drawn) 1890 nM, NS(=O)(=O)c1ccc(N2N=C(c3ccccc3)CC2c2ccccc2)cc1 (stereo not drawn) 6140 nM
